According to article PMC8401933 (Molecules, 2021):
“Also recorded” adds a separate entry of the source.

Legend:
[1] = test system: 3T3-L1 cells; test: Adipocyte differentiation, Oil Red O staining; format: cell-based; settings: for adipogenesis (ORO staining) / lipid accumulation / adipocyte differentiation (ORO staining): stained at day 8; for lipid accumulation / adipocyte differentiation (ORO staining): 3T3-L1, treated during differentiation; for quantity of lipid droplets (ORO staining): CX-4945 5 μM, KD025 3 μM
Description: (§1) The preadipocyte 3T3-L1 cell line was kindly provided by Dr. Hyun-Sung Park (University of Seoul) and cultured in Dulbecco’s modified Eagle’s medium (DMEM, Sigma-Aldrich) supplied with 10% heat-inactivated newborn calf serum (Invitrogen, CA, USA), 100 units/mL penicillin, and 100 µg/mL streptomycin (Cellgro, VA, USA). The cells were maintained in an incubator at 37 °C and 5% CO2. To initiate differentiation, the cells were incubated for additional days after 100% confluence and then further incubated in a medium containing fetal bovine serum (FBS) and a differentiation cocktail (DMI, 1 μM dexamethasone, 0.5 mM 3-isobutyl-1-methylxanthine, and 5 μg/mL insulin) as previously described. In brief, at day 3, the culture medium was replaced with DMEM/10%FBS containing 5 µg/mL insulin. Then, growth medium was changed every 2 days.
Lipid droplets of cells were stained using ORO (Sigma-Aldrich, MA, USA). In brief, the cells were washed with phosphate buffered saline and incubated with 10% formalin for 5 min. The cells were then fixed with the same volume of fresh formalin for at least 1 h. Subsequently, the cells were washed with 60% isopropanol, air dried completely, and then stained with ORO working solution (1% ORO/isopropanol: distilled water = 3:2). The stained cells were washed with water four times. Cell images were taken by a microscope (Nikon Eclipse TS100-F, Japan). Then, 100% isopropanol was added and incubated for 10 min to quantify the intensity of ORO. The quantity of extracted dye was obtained by obtaining absorbance at 540 nm in the Synergy H1 hybrid reader (BioTek, VT, USA).

[2] = test system: Pparg and Cebpa genes in 3T3-L1 cells; test: qRT-PCR of adipogenic genes during differentiation; format: cell-based; settings: 3T3-L1 during differentiation; KD025 5 μM, CX-4945 10 μM, Y-27632 10 μM
Description: as §1
Total RNA was extracted using easy-BLUE (iNtRON Biotechnology, Dajeon, Korea) in accordance with the manufacturer’s protocol. cDNA was synthesized from 2 µg of total RNA using TOPscript^TM Drymix Kit (Enzynomics, Dajeon, Korea). qRT-PCR was performed using TB Green ® Premix Ex Taq^TM II (Tli RNAse H Plus) (TaKaRa, Japan) with Applied Biosystems QuantStudio™ 1 Real-Time PCR System (Thermo Fisher Scientific, Waltham, MA, USA). Gene expression data were normalized based on the use of the same amount of total RNA samples. The relative fold change of gene expression was calculated using the ∆Ct method.

[3] = biological target: ROCK2 (Homo sapiens, UniProt O75116); test: KINOMEscan Kd determination; settings: 11-point concentrations, duplicate
Chain of ROCK2 (O75116 whole entry): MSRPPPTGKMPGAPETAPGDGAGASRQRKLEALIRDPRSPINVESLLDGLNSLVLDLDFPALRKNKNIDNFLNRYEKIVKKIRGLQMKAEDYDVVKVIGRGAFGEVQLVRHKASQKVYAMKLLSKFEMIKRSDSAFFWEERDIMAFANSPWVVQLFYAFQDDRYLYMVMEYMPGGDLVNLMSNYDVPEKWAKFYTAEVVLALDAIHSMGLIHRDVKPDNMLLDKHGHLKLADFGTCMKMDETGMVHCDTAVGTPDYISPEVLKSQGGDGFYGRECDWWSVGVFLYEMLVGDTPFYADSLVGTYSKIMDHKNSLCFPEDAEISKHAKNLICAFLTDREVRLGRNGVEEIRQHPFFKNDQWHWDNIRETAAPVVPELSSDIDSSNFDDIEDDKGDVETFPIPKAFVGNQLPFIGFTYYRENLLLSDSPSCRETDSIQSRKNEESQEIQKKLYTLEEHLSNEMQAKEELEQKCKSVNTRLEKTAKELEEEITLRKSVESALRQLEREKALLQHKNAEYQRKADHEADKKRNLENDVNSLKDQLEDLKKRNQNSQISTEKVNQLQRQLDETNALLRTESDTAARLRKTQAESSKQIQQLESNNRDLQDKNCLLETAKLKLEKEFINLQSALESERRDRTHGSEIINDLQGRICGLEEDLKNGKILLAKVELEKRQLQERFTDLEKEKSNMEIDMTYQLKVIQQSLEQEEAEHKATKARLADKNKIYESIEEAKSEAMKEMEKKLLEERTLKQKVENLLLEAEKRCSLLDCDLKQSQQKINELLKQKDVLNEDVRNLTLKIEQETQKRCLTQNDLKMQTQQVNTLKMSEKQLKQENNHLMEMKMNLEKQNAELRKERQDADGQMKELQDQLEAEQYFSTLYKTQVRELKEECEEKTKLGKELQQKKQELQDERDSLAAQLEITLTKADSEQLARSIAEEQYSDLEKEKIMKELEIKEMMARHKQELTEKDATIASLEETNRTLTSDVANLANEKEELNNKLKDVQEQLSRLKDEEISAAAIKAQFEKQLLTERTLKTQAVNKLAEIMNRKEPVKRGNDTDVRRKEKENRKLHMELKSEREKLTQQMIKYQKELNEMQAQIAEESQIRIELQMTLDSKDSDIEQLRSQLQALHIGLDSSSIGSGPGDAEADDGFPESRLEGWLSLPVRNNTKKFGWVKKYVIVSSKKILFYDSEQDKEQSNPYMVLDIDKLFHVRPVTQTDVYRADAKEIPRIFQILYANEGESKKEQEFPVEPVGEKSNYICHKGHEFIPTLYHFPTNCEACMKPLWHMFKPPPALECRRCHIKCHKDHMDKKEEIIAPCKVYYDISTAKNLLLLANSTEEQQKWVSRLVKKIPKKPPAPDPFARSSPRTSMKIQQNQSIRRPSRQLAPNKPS
Description: Dissociation constant (Kd) was measured using KINOMEscan^TM profiling service. […] The binding activity of inhibitors was monitored by measuring remained kinase-ligand binding activity. Kd was calculated based on the nonlinear least-square fit model by using the “drm” function of drc package [54] in R software (version 3.6.1).

Structure (SMILES): O=C1c2ccc(O)c(O)c2C(=O)c2c(O)ccc(O)c21 [quinalizarin, 1,2,5,8-tetrahydroxyanthraquinone]
- adipogenesis (ORO staining) ([1]; 3T3-L1, 5, 10, and 30 μM): suppressed adipogenesis
- lipid accumulation / adipocyte differentiation (ORO staining) [1]: inhibited effectively

Structure (SMILES): O=S(=O)(c1cccc2cnccc12)N1CCCNCC1 [fasudil]
- lipid accumulation / adipocyte differentiation (ORO staining) [1]: does not
- lipid accumulation / adipocyte differentiation (ORO staining) ([1]; listed as Fasudil): no significant effect

Structure (SMILES): O=C(O)c1ccc2c(c1)nc(Nc1cccc(Cl)c1)c1ccncc12 [CX-4945]
- lipid accumulation / adipocyte differentiation (ORO staining) [1]: suppressed the generation of lipid droplets; also recorded: significantly reduced the amount of accumulated fat in a dose-dependent manner
- quantity of lipid droplets (ORO staining) ([1]; 3T3-L1, treated during the early (days 0–1) or late (days 5–8) stage): ineffective; also recorded: lesser effect
- quantity of lipid droplets (ORO staining) ([1]; 3T3-L1, treated during the intermediate stage (days 1–3)): acted specifically in the middle stage; also recorded: significantly reduced
- expression of Pparg and Cebpa genes [2]: markedly suppressed
- Kd [3]: no selective interaction; also recorded: did not show such cross-reactivity

Structure (SMILES): C[C@@H](N)[C@H]1CC[C@H](C(=O)Nc2ccncc2)CC1 [Y-27632]
- expression of Pparg and Cebpa genes [2]: increased; also recorded: did not suppress

Structure (SMILES): CN(C)c1nc2c(Br)c(Br)c(Br)c(Br)c2[nH]1 [DMAT, 2-dimethylamino-4,5,6,7-tetrabromo-1H-benzimidazole]
- adipogenesis (ORO staining) ([1]; 3T3-L1, 5 μM): promoting reversely the differentiation
- adipogenesis (ORO staining) ([1]; 3T3-L1, 30 μM): inhibited the adipogenesis
- lipid accumulation / adipocyte differentiation (ORO staining) [1]: inhibited effectively
